Assay results: patent US20230080054A1 (ILDONG PHARMACEUTICAL CO., LTD., priority 2021, published 2023)

Biological target: T1, human ANO6 (Homo sapiens, UniProt Q4KMQ2)
T1 construct: expressed in transfected cells
T1 sequence (Q4KMQ2 1-931 isoform Q4KMQ2-2): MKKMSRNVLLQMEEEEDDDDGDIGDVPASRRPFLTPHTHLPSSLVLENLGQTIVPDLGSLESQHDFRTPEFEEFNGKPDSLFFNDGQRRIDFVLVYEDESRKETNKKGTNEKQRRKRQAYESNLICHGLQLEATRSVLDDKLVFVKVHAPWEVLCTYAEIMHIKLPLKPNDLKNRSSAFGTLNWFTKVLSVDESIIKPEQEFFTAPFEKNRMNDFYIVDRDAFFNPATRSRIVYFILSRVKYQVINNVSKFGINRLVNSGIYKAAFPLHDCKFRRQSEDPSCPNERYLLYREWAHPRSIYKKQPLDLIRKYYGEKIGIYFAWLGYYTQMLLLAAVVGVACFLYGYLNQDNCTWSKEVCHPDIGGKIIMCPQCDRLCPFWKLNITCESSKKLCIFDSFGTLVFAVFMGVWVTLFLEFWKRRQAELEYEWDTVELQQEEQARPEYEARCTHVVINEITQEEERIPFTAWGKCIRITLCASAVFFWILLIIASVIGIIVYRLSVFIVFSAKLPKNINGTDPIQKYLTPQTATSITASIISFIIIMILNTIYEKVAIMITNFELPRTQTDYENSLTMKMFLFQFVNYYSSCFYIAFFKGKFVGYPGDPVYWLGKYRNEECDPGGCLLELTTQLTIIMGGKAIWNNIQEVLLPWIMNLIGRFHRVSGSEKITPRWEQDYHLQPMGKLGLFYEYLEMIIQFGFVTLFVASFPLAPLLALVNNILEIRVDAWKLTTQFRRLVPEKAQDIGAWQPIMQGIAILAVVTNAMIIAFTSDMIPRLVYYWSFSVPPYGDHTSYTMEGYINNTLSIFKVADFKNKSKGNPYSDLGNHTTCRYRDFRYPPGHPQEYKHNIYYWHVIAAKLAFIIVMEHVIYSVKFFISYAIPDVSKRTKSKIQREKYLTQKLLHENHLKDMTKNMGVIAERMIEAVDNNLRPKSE
Assay: LACT C2 assay (phosphatidylserine scramblase function assay)
Assay type: cell-based
Conditions: FRT cells expressing human ANO6, 10 μM ionomycin; for inhibition at 0.1 µM: test compound 100 nM, read-out: Inhibition Level 100 nM; for inhibition at 1 µM: test compound 1 μM, read-out: Inhibition Level 1 μM
Description: Phosphatidylserine Scramblase Function Assay
1. Materials and Instruments
Ionomycin (Alomonelab, cat. #I-700), DAPI (Sigma-Aldrich, cat. #D8417), paraformaldehyde (Biosesang, cat. #P2031), Lionheart FX Automated Microscope (BioTek, Winooski), Python3 (Python Software Foundation), and OpenCV (Open Source Computer Vision Library).
Fisher rat thyroid (FRT) cells stably expressing human ANO6 (GenBank accession no. NP_001191732.1, provided by J. H. Nam, Dongguk University College of Medicine, Korea) were grown in DMEM/Ham's F-12 (1:1) medium with 10% FBS, 2 mM L-549 glutamine, 100 units/mL penicillin, and 100 μg/mL streptomycin at 37° C. and 5% CO2.
FRT cells stably expressing human ANO6 were plated in 96 well black-walled microplates at a density of 2×10^4 cells/well. After 24 hours incubation, cells were treated with the test compound (dissolved in DMSO) were treated to each well to become 1% v/v DMSO for 10 minutes, then 10 μM of ionomycin was applied. Finally each well was washed with 200 μL PBS after 10 minutes. After washout, the phosphatidylserine and nuclei were stained with PBS containing 500 nM Lactadherin-C2 (Lact-C2)-GFP, then cells were washed with 200 μL PBS. Cells were fixed with 4% paraformaldehyde for 5 minutes at room temperature. For morphological analysis, some cells were stained with fluorescently labelled DAPI for 15 minutes at room temperature. Quantitative analysis of the fluorescence intensity of Lact-C2-GFP was performed with Python3 and OpenCV. OpenCV was used to remove background and noise pixels, and the sum of all remaining pixel values was used to evaluate the fluorescence intensity of Lact-C2-GFP.
The inhibitory activity (%) of each of the test compounds was obtained by the following steps. In each row of 96 well plate, the inhibitory activity of each of the test compounds was calculated as percentages. The inhibitory activity of a negative control group to which neither compounds nor ionomycin were treated was set to be 100%, and the inhibitory activity of a positive control group to which ionomycin was treated and compounds were not treated was set to be 0%. The assay was performed in triplicate, and the results were averaged.

| inhibition at 0.1 µM | inhibition at 1 µM | SMILES |
| --- | --- | --- |
| < 30% | < 30% | Cc1ccc(CCNC(=O)c2cccc(Nc3ncc(-c4ccccc4)cn3)c2)o1 [Compound 153, N-(2-(5-methylfuran-2-yl)ethyl)-3-((5-phenylpyrimidin-2-yl)amino)benzamide] |
| < 30% | 30 to 60% | O=C(N[C@@H]1C[C@H]1c1ccccc1)c1cncc(Nc2ncc(-c3ccccc3)cn2)c1 [Compound 156, N-((1R,2S)-2-phenylcyclopropyl)-5-((5-phenylpyrimidin-2-yl)amino)nicotinamide] |
| 30 to 60% | ≥ 60% | O=C(N[C@@H]1C[C@H]1c1ccccc1)c1cccc(Nc2ncc(-c3ccoc3)cn2)c1 [Compound 157, 3-((5-(furan-3-yl)pyrimidin-2-yl)amino)-N-((1R,2S)-2-phenylcyclopropyl)benzamide] |
| < 30% | 30 to 60% | O=C(N[C@@H]1C[C@H]1c1ccccc1)c1cccc(Nc2nnc(-c3ccccc3)o2)c1 [Compound 159, 3-((5-phenyl-1,3,4-oxadiazol-2-yl)amino)-N-((1R,2S)-2-phenylcyclopropyl)benzamide] |
| < 30% |  | O=C(N[C@@H]1C[C@H]1c1ccccc1)C12CC3CC(CC(Nc4ccc(-c5ccccc5)nn4)(C3)C1)C2 [Compound 166, N-((1R,2S)-2-phenylcyclopropyl)-3-((6-phenylpyridazin-3-yl)amino)adamantane-1-carboxamide] |
| < 30% |  | O=C(N[C@@H]1C[C@H]1c1ccccc1)c1cc(Nc2ncc(-c3ccccc3)cn2)ccn1 [Compound 167, N-((1R,2S)-2-phenylcyclopropyl)-4-((5-phenylpyrimidin-2-yl)amino)picolinamide] |
| < 30% |  | O=C(N[C@@H]1C[C@H]1c1ccccc1)C12CCC(Nc3ccc(-c4ccccc4)nn3)(CC1)C2 [Compound 168, (1s,4s)-N-((1R,2S)-2-phenylcyclopropyl)-4-((6-phenylpyridazin-3-yl)amino)bicyclo[2.2.1]heptane-1-carboxamide] |
| < 30% |  | CNc1cccc(NC(=O)c2cccc(Nc3ncc(-c4cccc(F)c4)cn3)c2)c1 [Compound 177, 3-((5-(3-fluorophenyl)pyrimidin-2-yl)amino)-N-(3-(methylamino)phenyl)benzamide] |
| 30 to 60% |  | O=C(N[C@@H]1C[C@H]1c1ccccc1)c1ccnc(Nc2ncc(-c3ccccc3)cn2)c1 [Compound 178, N-((1R,2S)-2-phenylcyclopropyl)-2-((5-phenylpyrimidin-2-yl)amino)isonicotinamide] |
| < 30% |  | CN(c1cccc(C(=O)N[C@@H]2C[C@H]2c2ccccc2)c1)c1ncc(-c2cccc(F)c2)cn1 [Compound 180, 3-((5-(3-fluorophenyl)pyrimidin-2-yl)(methyl)amino)-N-((1R,2S)-2-phenylcyclopropyl)benzamide] |
| < 30% |  | O=C(Nc1ccc2c(c1)CCN2)c1cccc(Nc2ncc(-c3cccc(F)c3)cn2)c1 [Compound 181, 3-((5-(3-fluorophenyl)pyrimidin-2-yl)amino)-N-(indolin-5-yl)benzamide] |
| < 30% |  | O=C(Nc1nnc(-c2ccccc2)[nH]1)c1cccc(Nc2ncc(-c3cccc(F)c3)cn2)c1 [Compound 194, 3-((5-(3-fluorophenyl)pyrimidin-2-yl)amino)-N-(5-phenyl-4H-1,2,4-triazol-3-yl)benzamide] |
| ≥ 60% | ≥ 60% | O=C(N[C@@H]1C[C@H]1c1ccc(F)cc1)c1cccc(Nc2ccc(-c3ccccc3)nn2)c1 [Compound 199] |
| < 30% | 30 to 60% | O=C(NCc1ccc(C(F)(F)F)cc1)c1cccc(Nc2ncc(-c3cccc(F)c3)cn2)c1 [Compound 202, 3-((5-(3-fluorophenyl)pyrimidin-2-yl)amino)-N-(4-(trifluoromethyl)benzyl)benzamide] |
| < 30% | < 30% | O=C(NCc1ccccc1F)c1cccc(Nc2ncc(-c3cccc(F)c3)cn2)c1 [Compound 203, N-(2-fluorobenzyl)-3-((5-(3-fluorophenyl)pyrimidin-2-yl)amino)benzamide] |

Second part, the molecule before the results:

| SMILES | inhibition at 0.1 µM | inhibition at 1 µM |
| --- | --- | --- |
| O=C(Nc1cccc(F)c1)c1cccc(Nc2nnc(-c3ccccc3)o2)c1 [Compound 158, N-(3-fluorophenyl)-3-((5-phenyl-1,3,4-oxadiazol-2-yl)amino)benzamide] | < 30% | < 30% |
| O=C(Nc1cccc(F)c1)c1cccc(Nc2ccc(-c3ccncc3)cc2)c1 [Compound 162, N-(3-fluorophenyl)-3-((4-(pyridin-4-yl)phenyl)amino)benzamide] | < 30% | ≥ 60% |
| Cc1cscc1-c1cnc(Nc2cccc(C(=O)Nc3cccc(F)c3)c2)nc1 [Compound 179, N-(3-fluorophenyl)-3-((5-(4-methylthiophen-3-yl)pyrimidin-2-yl)amino)benzamide] | ≥ 60% |  |
| O=C(Nc1cccc(F)c1)c1cccc(NC2CCC(c3ccccc3)C2)c1 (stereo not drawn) [Compound 187, N-(3-fluorophenyl)-3-((3-phenylcyclopentyl)amino)benzamide] | < 30% |  |
| O=C(Nc1cccc(F)c1)C1CCCC(Nc2ccc(-c3ccccc3)nn2)C1 (stereo not drawn) [Compound 191, N-(3-fluorophenyl)-3-((6-phenylpyridazin-3-yl)amino)cyclohexane-1-carboxamide] | < 30% |  |
| O=C(Nc1ccc2c(c1)CNC2)c1cccc(Nc2ncc(-c3cccc(F)c3)cn2)c1 [Compound 192, 3-((5-(3-fluorophenyl)pyrimidin-2-yl)amino)-N-(isoindolin-5-yl)benzamide] | < 30% |  |
| O=C(NCc1ccc(F)c(C(F)(F)F)c1)c1cccc(Nc2ccc(-c3ccccc3)nn2)c1 [Compound 195, N-(4-fluoro-3-(trifluoromethyl)benzyl)-3-((6-phenylpyridazin-3-yl)amino)benzamide] | < 30% | ≥ 60% |
| O=C(NC1(c2ccc(F)cc2)CC1)c1cccc(Nc2ccc(-c3ccccc3)nn2)c1 [Compound 196, N-(1-(4-fluorophenyl)cyclopropyl)-3-((6-phenylpyridazin-3-yl)amino)benzamide] | < 30% | 30 to 60% |
| CN1CCN(c2ccc(CNC(=O)c3cccc(Nc4ccc(-c5ccccc5)nn4)c3)cc2)CC1 [Compound 197, N-(4-(4-methylpiperazin-1-yl)benzyl)-3-((6-phenylpyridazin-3-yl)amino)benzamide] | < 30% | < 30% |
| O=C(NCCc1ccc(F)cc1)c1cccc(Nc2ccc(-c3ccccc3)nn2)c1 [Compound 198, N-(4-fluorophenethyl)-3-((6-phenylpyridazin-3-yl)amino)benzamide] | < 30% | ≥ 60% |
| O=C(NCc1ccc(F)cc1Br)c1cccc(Nc2ccc(-c3ccccc3)nn2)c1 [Compound 200, N-(2-bromo-4-fluorobenzyl)-3-((6-phenylpyridazin-3-yl)amino)benzamide] | < 30% | ≥ 60% |
| O=C(NCc1ccc(F)c(Br)c1)c1cccc(Nc2ccc(-c3ccccc3)nn2)c1 [Compound 201, N-(3-bromo-4-fluorobenzyl)-3-((6-phenylpyridazin-3-yl)amino)benzamide] | < 30% | 30 to 60% |
